Test results published in ChEMBL document CHEMBL5247664, “Structure-activity relationship of BMS906024 derivatives for Cryptosporidium parvum growth inhibition” (Bioorg Med Chem Lett, 2023).

Experiments:
Format in all cases: functional, organism-based
Cryptosporidium parvum [1] = assay: Antiparasitic activity against Cryptosporidium parvum assessed as parasitic growth inhibition measured for 24 hrs
Cryptosporidium parvum [2] = assay: Antiparasitic activity against Cryptosporidium parvum infected in human HCT-8 cells assessed as parasitic growth inhibition measured for 48 hrs by fluorescence based microscopic analysis; conditions: for EC50: HCT-8, 48 h; for EC90: HCT-8, time 48 hrs
Cryptosporidium parvum [3] = assay: Antiparasitic activity against Cryptosporidium parvum infected in human HCT-8 cells assessed as parasitic growth inhibition incubated for 45 mins followed by compound washout further infected in cells and measured after 48 hrs by microscopic analysis
Cryptosporidium parvum [4] = assay: Antiparasitic activity against Cryptosporidium parvum assessed as parasitic growth inhibition

Structure (SMILES)	EC50 (Cryptosporidium parvum [1]) [nM]	EC50 (Cryptosporidium parvum [2]) [nM]	EC90 (Cryptosporidium parvum [2]) [nM]	EC50 (Cryptosporidium parvum [3]) [nM]	EC50 (Cryptosporidium parvum [4]) [nM]
C[C@H](NC(=O)Cc1cc(F)cc(F)c1)C(=O)N[C@H](C(=O)OC(C)(C)C)c1ccccc1	12500				
CN1C(=O)[C@H](NC(=O)[C@H](CCC(F)(F)F)CC(=O)N2CCCCC2)N=C(c2ccccc2)c2cc(Cl)c(OC3COC3)cc21		5470	12800		
CN1C(=O)[C@H](NC(=O)[C@H](CCC(F)(F)F)CC(=O)N2CCCCC2)N=C(c2ccccc2)c2ccc(OC3COC3)cc21		2290	4900		
COc1ccc2c(c1)N(C)C(=O)[C@@H](NC(=O)[C@H](CCC(F)(F)F)CC(=O)N1CCCCC1)N=C2c1ccccc1		31	66		
CN1C(=O)[C@@H](NC(=O)[C@H](CCC(F)(F)F)CC(=O)N2CCCCC2)N=C(c2ccccc2)c2cc(Cl)c(OC3COC3)cc21		320	960		
CN1C(=O)[C@@H](NC(=O)[C@H](CCC(F)(F)F)CC(=O)N2CCCCC2)N=C(c2ccccc2)c2ccc(Oc3ccccc3)cc21		25	55		
CCCNC(=O)C[C@@H](CCC(F)(F)F)C(=O)N[C@H]1N=C(c2ccccc2)c2ccc(OC3COC3)cc2N(C)C1=O		350	970		
CCCNC(=O)C[C@H](CCC(F)(F)F)C(=O)N[C@H]1N=C(c2ccccc2)c2ccccc2N(C)C1=O		> 25000	> 25000		
CCCNC(=O)CCC(=O)N[C@H]1N=C(c2ccccc2)c2ccccc2N(C)C1=O		> 25000	> 25000		
CN1C(=O)[C@@H](NC(=O)[C@H](CCC(F)(F)F)CC(N)=O)N=C(c2ccccc2)c2ccccc21		> 25000	> 25000		
CN1C(=O)[C@@H](NC(=O)[C@H](CCC(F)(F)F)CC(=O)N2CCCCC2)N=C(c2ccccc2)c2ccc(OC3COC3)cc21		110	210		
CCN(CC)C(=O)C[C@@H](CCC(F)(F)F)C(=O)N[C@H]1N=C(c2ccccc2)c2ccccc2N(C)C1=O		110	310	500	
CN1C(=O)[C@@H](NC(=O)[C@H](CCC(F)(F)F)CC(=O)N2CCCCC2)N=C(c2ccccc2)c2ccccc21		6.4	16		
CN1C(=O)[C@@H](NC(=O)[C@H](CCC(F)(F)F)CC(=O)N2CCOCC2)N=C(c2ccccc2)c2ccccc21		52	100		
CCCNC(=O)C(C)(C)CC(=O)N[C@H]1N=C(c2ccccc2)c2ccccc2N(C)C1=O		> 25000	> 25000		
CCCNC(=O)C[C@@H](CCC(F)(F)F)C(=O)N[C@@H]1N=C(c2ccccc2)c2ccc(OC3COC3)cc2N(C)C1=O		> 25000	> 25000		
CCCNC(=O)[C@@H](CCC(F)(F)F)CC(=O)N[C@H]1N=C(c2ccccc2)c2ccccc2N(C)C1=O		> 25000	> 25000		
CCCNC(=O)C[C@@H](CCC(F)(F)F)C(=O)N[C@H]1N=C(c2ccccc2)c2ccc(OC)cc2N(C)C1=O		81	150		
CCNC(=O)C[C@@H](CCC(F)(F)F)C(=O)N[C@H]1N=C(c2ccccc2)c2ccccc2N(C)C1=O		280	610		
CN1C(=O)[C@H](NC(=O)[C@H](CCC(F)(F)F)CC(=O)N2CCCCC2)N=C(c2ccccc2)c2ccc(OC3CCC3)cc21		2520	11100		
CN1C(=O)[C@@H](NC(=O)C[C@H](CCC(F)(F)F)C(N)=O)N=C(c2ccccc2)c2ccccc21		25000	> 25000		
CCCNC(=O)CC(C)(C)C(=O)N[C@H]1N=C(c2ccccc2)c2ccccc2N(C)C1=O		> 25000	> 25000		
CN1C(=O)[C@H](NC(=O)[C@H](CCC(F)(F)F)CC(=O)N2CCCCC2)N=C(c2ccccc2)c2ccc(Oc3ccccc3)cc21		1690	3610		
CCC[C@H](CC(=O)N1CCCC1)C(=O)N[C@H]1N=C(c2ccccc2)c2ccccc2N(C)C1=O		110	230		
CCCN(CCC)C(=O)C[C@@H](CCC(F)(F)F)C(=O)N[C@H]1N=C(c2ccccc2)c2ccccc2N(C)C1=O		1450	2790		
CN1C(=O)[C@@H](NC(=O)[C@H](CCC(F)(F)F)CC(=O)N2CCCCC2)N=C(c2ccccc2)c2ccc(OC3CCC3)cc21		77	160		
CCCNC(=O)C[C@@H](CCC(F)(F)F)C(=O)N[C@H]1N=C(c2ccccc2)c2ccccc2N(C)C1=O		18	56		
CN1C(=O)[C@@H](NC(=O)[C@H](CCC(F)(F)F)CC(=O)OC(C)(C)C)N=C(c2ccccc2)c2ccccc21		550	1120		
CN1C(=O)[C@@H](NC(=O)[C@H](CCC(F)(F)F)[C@H](CCC(F)(F)F)C(N)=O)N=C(c2ccccc2)c2ccccc21 [OSUGACESTAT]		1.8	2.3		1.8
CC(C)[C@H](O)C(=O)N[C@@H](C)C(=O)N[C@@H]1C(=O)N(C)CCc2ccccc21 [SEMAGACESTAT]	4200				
